Experiments:
NHDF cells [1] = assay: Experiment 2: collagen sedimented over cell surface and released in supernatant of NHDF cells, α,α-trehalose or maltose with AA-2G; format: cell-based, human
Protocol: Influence of α,α-trehalose and maltose on collagen production using NHDF cells was examined by the following experiment: Test solutions were prepared by dissolving either AA-2G; hydrous crystalline α,α-trehalose, a reagent grade specimen, commercialized by Hayashibara Biochemical Laboratories Inc., Okayama, Japan; or hydrous crystalline maltose, a reagent grade specimen, commercialized by Hayashibara Biochemical Laboratories Inc., Okayama; Japan, in […] The methods for culturing NHDF cells and quantifying the collagen-production level of the cells were conducted similarly as in Experiment 1. The collagen level in each culture supernatant of NHDF cells was determined in such a manner of collecting the culture supernatant and quantifying the collagen released in the supernatant by using “Sircol Collagen Quantification Kit”. As a control, D-MEM medium containing 50 μM AA-2G was used. These control and test solutions were respectively experimented using three wells, followed by calculating a mean value for collagen-production levels in the wells. The results are in Table 2 where the values are expressed with relative values for either or both of the levels of collagen, that had sedimented over the cell surfaces or released in the supernatants, in terms of their collagen-production levels of NHDF cells, which had been cultured in D-MEM medium containing 50 μM AA-2G, being regarded as 100.

NHDF cells [2] = assay: Experiment 4: collagen production in NHDF cells, saccharides combined with hyaluronic acid and/or chondroitin sulfate; format: cell-based, human
Source text: Influence of α,α-trehalose or a saccharide derivative thereof, or a combination use of any of these saccharides and hyaluronic acid and/or chondroitin sulfate on the collagen production by L-ascorbic acids was examined as follows. AA-2G and any one of hydrous crystalline α,α-trehalose, a reagent grade specimen commercialized by Hayashibara Biochemical Laboratories Inc., Okayama, Japan; α-maltosyl α,α-trehalose with a purity of at least 98% commercialized by Hayashibara Biochemical Laboratories Inc., Okayama, Japan; and “HALLODEX”, a product name of a syrup of saccharide derivatives of α,α-trehalose were dissolved in D-MEM medium to give final concentrations of 50 μM of AA-2G and 15.0 mg/ml of saccharides. Further, as another test solutions, those, which had been prepared similarly as in the above, were admixed with any one of hyaluronic acid, chondroitin sulfate, and a combination thereof to give respective concentrations of 1 mg/ml, 1 mg/ml, and 0.5 mg/ml of hyaluronic acid and chondroitin sulfate each. The medium supplemented with a syrup containing about 59%, d.s.b., of saccharide derivatives of α,α-trehalose was prepared to give a concentration of 15.0 mg/ml of the saccharide derivatives of α,α-trehalose contained in the syrup. The culture of NHDF cells and the quantification of collagen-production level thereof were carried out similarly as in Experiment 1. The results are in Table 4 where the values are expressed with relative values in terms of the collagen-production level of NHDF cells, being regarded as 100, when cultured in D-MEM medium containing AA-2G.

[3] = test system: skin wrinkles/finely-wrinkles and flabby skin; assay: Experiment 5: self-evaluation of lotions on skin wrinkles/finely-wrinkles and flabby skin, four months; format: in vivo, human; details: lotion, no saccharide, 3 times a day, 4 months
Protocol: The following experiment was conducted to examine the influence of α,α-trehalose or saccharide derivatives thereof and hyaluronic acid and/or chondroitin sulfate on the skin. Since there exists a relatively constant amount of L-ascorbic acid in vivo, the collagen production by L-ascorbic acid proceeds constantly. Based on the following basic formulation for lotion and the combination and composition in Table 5, 100 parts by weights of a lotion was prepared by adding to the basic formulation sodium hyaluronate, chondroitin sulfate, hydrous crystalline α,α-trehalose, a cosmetic grade specimen commercialized by Hayashibara Biochemical Laboratories Inc., Okayama, Japan, and “[…]”, a product name of a syrup having a solid content of about 75% and containing, on a dry solid basis, about 53% by weight of α-maltosyl α,α-trehalose and about 5% by weight of other saccharide derivatives of α,α-trehalose, and an adequate amount of refined water. In Table 5, the respective amounts of the added saccharide are expressed on a dry solid basis. The syrup containing saccharide derivatives of α,α-trehalose was added in an amount of the saccharide derivatives as shown in Table 5. Eleven women as volunteers, who had been suffering from skin wrinkles/finely-wrinkles or flabby skin, were allowed to wash their faces with any of the lotions having compositions in Table 5 three times a day for four months and then allowed to evaluate themselves about their face-skin conditions by comparing with those before use of the lotions.

NHDF cells [4] = assay: Experiment 3: collagen production in NHDF cells, α,α-trehalose and saccharide derivatives with or without AA-2G; format: cell-based, human
Protocol: Based on the confirmation that α,α-trehalose has an action of enhancing the collagen production by L-ascorbic acid, it was experimented as follows to confirm whether saccharide derivatives of α,α-trehalose have such a similar action and effect. Test solutions were prepared by dissolving in D-MEM medium any one of AA-2G, hydrous crystalline α,α-trehalose, a reagent grade specimen with a purity of at least 98%, commercialized by Hayashibara Biochemical Laboratories Inc., Okayama, Japan; “HALLODEX”, a product name of a syrup of saccharide derivatives of α,α-trehalose, having a solid content of about 75% and containing, on a dry solid basis, about 53% of α-maltosyl α,α-trehalose and about 5% of other saccharide derivatives of α,α-trehalose in total, to give final concentrations of 50 μM of AA-2G and 15.0 mg/ml of saccharides. As a control, test solutions were prepared by dissolving in D-MEM medium either of the above hydrous crystalline α,α-trehalose, α-maltosyl α,α-trehalose, or syrup of saccharide derivatives of α,α-trehalose to give a final concentration of 15.0 mg/ml. The medium admixed with the syrup containing saccharide derivatives of α,α-trehalose was adjusted to give a concentration of 15.0 mg/ml of saccharide derivatives of α,α-trehalose. The culture of NHDF cells and the quantification of collagen-production level thereof were carried out similarly as in Experiment 1. The results are in Table 3, where the values are expressed with relative values in terms of the collagen production level of NHDF cells, being regarded as 100, when cultured in D-MEM medium containing AA-2G.

[5] = test system: NHDF cells (normal human dermal fibroblast cell); assay: Experiment 1: collagen production in NHDF cells (Sircol kit), α,α-trehalose with AA-2G; format: cell-based; details: D-MEM with 50 μM AA-2G, no α,α-trehalose; reference regarded as 100
Protocol: Using “fibrocell NHDF”, a normal human dermal fibroblast cell, commercialized by Kurashiki Spinning Co., Ltd., Okayama, Japan (abbreviated as “NHDF cells”, hereinafter), experiment for studying the influence of α,α-trehalose on the collagen production by L-ascorbic acids was conducted based on the method described in Bioscience, Biotechnology, and Biochemistry, Vol. 68, No. 4, pp. 767-773, 2004. The method is outlined below: Test solutions were prepared by dissolving L-ascorbic acid 2-glucoside, a reagent grade specimen commercialized by Hayashibara Biochemical Laboratories Inc., Okayama, Japan (may be abbreviated as “AA-2G”, hereinafter), and α,α-trehalose, a reagent grade specimen commercialized by Hayashibara Biochemical Laboratories Inc., Okayama, Japan, in Dulbecco […] essential medium containing 10% (v/v) fetal calf serum and an antibiotic (abbreviated as “D-MEM”, hereinafter) to give a final concentration of 50 μM/ml of AA-2G and a final concentration of 7.5, 15 or 30 mg/ml of α,α-trehalose. NHDF cells, which had been successively cultured in D-MEM medium, were collected, re-suspended in a fresh preparation of D-MEM medium, inoculated to 96-well microplates at a cell concentration of 2.5×10^4 cells/200 μl/well, and cultured for 24 hours. Thereafter, the supernatants of the cultures were removed by sucking, and further cultured for five days after addition of any of the test solutions in a volume of 200 μl/well. As controls, the cells, which had been cultured for 24 hours, were further cultured for five days after addition of 200 μl/well of D-MEM medium, D-MEM medium supplemented with α,α-trehalose at a concentration of 30 mg/ml, or D-MEM medium supplemented with AA-2G at a concentration of 50 μM/ml. After completion of culturing, the supernatants of the cultures were removed by sucking, admixed with 50 μl/well of 1 M acetic acid solution containing 1 mg/ml of pepsin, and shaken for four hours to solubilize collagen adhered to the cell surfaces, followed by quantifying the content of collagen accumulated in the cells using “Sircol Collagen Quantification Kit”, commercialized by Biocolor Ltd. These control and test solutions were respectively experimented with three wells, followed by calculating a mean value for collagen-production levels in the wells. All the cultures of the NHDF cells were conducted in a 5% (v/v) CO2 incubator. The results are in Table 1 where the values are expressed with relative values in terms of the collagen-production level of NHDF cells, which had been cultured in D-MEM medium containing AA-2G, being regarded as 100.

[6] = saccharide 0.2 mg/ml + 50 μM AA-2G, relative to AA-2G = 100
[7] = saccharide 0.6 mg/ml + 50 μM AA-2G, relative to AA-2G = 100
[8] = saccharide 1.7 mg/ml + 50 μM AA-2G, relative to AA-2G = 100
[9] = saccharide 5.0 mg/ml + 50 μM AA-2G, relative to AA-2G = 100
[10] = saccharide 15.0 mg/ml + 50 μM AA-2G, relative to AA-2G = 100
[11] = sodium hyaluronate 0.5 part by weight
[12] = D-MEM containing 50 μM AA-2G alone, reference regarded as 100
[13] = chondroitin sulfate 0.5 part by weight

Compound: OC[C@H]1O[C@H](O[C@H]2[C@H](O)[C@@H](O)C(O)O[C@@H]2CO)[C@H](O)[C@@H](O)[C@@H]1O (mixture of isomers) [maltose]
- Collagen-production level, In supernatant (NHDF cells [1]; [6]): 101
- Collagen-production level, Total (NHDF cells [1]; [6]): 99
- Collagen-production level, In supernatant (NHDF cells [1]; [7]): 134
- Collagen-production level, Total (NHDF cells [1]; [7]): 92
- Collagen-production level, In supernatant (NHDF cells [1]; [8]): 288
- Collagen-production level, Total (NHDF cells [1]; [8]): 97
- Collagen-production level, In supernatant (NHDF cells [1]; [9]): 256
- Collagen-production level, Total (NHDF cells [1]; [9]): 61
- Collagen-production level, In supernatant (NHDF cells [1]; [10]): 228
- Collagen-production level, Total (NHDF cells [1]; [10]): 44

Compound: sodium hyaluronate
- Collagen-production level (NHDF cells [2]; no saccharide, 50 μM AA-2G + sodium hyaluronate 1 mg/ml): 98
- Evaluation A (remarkably efficacious) [3, 11]: 0 number of volunteers
- Evaluation B (efficacious) [3, 11]: 0 number of volunteers
- Evaluation C (slightly efficacious) [3, 11]: 2 number of volunteers
- Evaluation D (inefficacious) [3, 11]: 9 number of volunteers

Compound: OC[C@H]1O[C@H](O[C@H]2O[C@H](CO)[C@@H](O[C@H]3O[C@H](CO)[C@@H](O[C@H]4O[C@H](CO)[C@@H](O)[C@H](O)[C@H]4O)[C@H](O)[C@H]3O)[C@H](O)[C@H]2O)[C@H](O)[C@@H](O)[C@@H]1O [α-Maltosyl α,α-trehalose, α-maltosyl α,α-trehalose]
- Collagen-production level (NHDF cells [4]; [10]): 182
- Collagen-production level (NHDF cells [4]; saccharide 15.0 mg/ml, AA-2G not added, relative to AA-2G = 100): 39
- Collagen-production level (NHDF cells [2]; saccharide 15.0 mg/ml + 50 μM AA-2G): 158
- Collagen-production level (NHDF cells [2]; saccharide 15.0 mg/ml + 50 μM AA-2G + chondroitin sulfate 1 mg/ml): 188
- Collagen-production level (NHDF cells [2]; saccharide 15.0 mg/ml + 50 μM AA-2G + hyaluronate and chondroitin sulfate 0.5 mg/ml each): 276
- Collagen-production level (NHDF cells [2]; saccharide 15.0 mg/ml + 50 μM AA-2G + sodium hyaluronate 1 mg/ml): 199
- Collagen-production level (NHDF cells [2]; saccharide 15.0 mg/ml alone, no AA-2G, no hyaluronate, no chondroitin sulfate): 39

Compound: O=C1O[C@H]([C@@H](O)CO)C(O)=C1O[C@H]1O[C@H](CO)[C@@H](O)[C@H](O)[C@H]1O [AA-2G, L-ascorbic acid 2-glucoside, reference compound]
- Collagen-production level [5]: 100
- Collagen-production level, In supernatant (NHDF cells [1]; [12]): 100
- Collagen-production level, Total (NHDF cells [1]; [12]): 100
- Collagen-production level (NHDF cells [4]; no saccharide, 50 μM AA-2G added, reference regarded as 100): 100
- Collagen-production level (NHDF cells [2]; no saccharide, 50 μM AA-2G alone, reference regarded as 100): 100

Compound: chondroitin sulfate
- Collagen-production level (NHDF cells [2]; no saccharide, 50 μM AA-2G + chondroitin sulfate 1 mg/ml): 97
- Evaluation A (remarkably efficacious) [3, 13]: 0 number of volunteers
- Evaluation B (efficacious) [3, 13]: 0 number of volunteers
- Evaluation C (slightly efficacious) [3, 13]: 1 number of volunteers
- Evaluation D (inefficacious) [3, 13]: 10 number of volunteers
